Test results taken from PMC5734940 (Toxicology and applied pharmacology, 2017).
Where two headings read alike, the source gives them in different places.

What was measured:
[1] = tested on: Human iPSC-derived cardiomyocytes (iCell cardiomyocytes); assay type: cell-based
[2] = tested on: Human iPSC-derived cardiomyocytes (iCell cardiomyocytes); experiment: Calcium flux assay; conditions: for Ca2+-flux phenotype in words: text to Figure 3; for Effect on beat frequency (in words): at 10 and/or 30 μM, PAHs; for Typical phenotypic response of calcium-flux signal trace: 30 μM, after 30 minutes of exposure, Figure 3
[3] = tested on: Human iPSC-derived cardiomyocytes (iCell cardiomyocytes); conditions: 30 min after treatment, JC-10
[4] = tested on: Human iPSC-derived cardiomyocytes (iCell cardiomyocytes); conditions: for Cytotoxicity (in words): 24 hrs, concentrations up to 30 μM
[5] = at both short-term (30 min) and longer-term exposures (24 hrs)
[6] = primarily at 24 hrs of exposure, Figure 5

Molecule: C[n+]1ccc(-c2ccccc2)cc1.[I-] [1-methyl-4-phenylpyridinium iodide, 1-Methyl-4-phenylpyridinium iodide (MPP+), reference compound]
- Cardiotoxic selectivity for peak frequency (selective = ratio ≥3) [1, 5]: selective
- Ca2+-flux phenotype in words [2]: decrease in the peak frequency concomitant with an increase in the average peak width

Molecule: Brc1ccc(Oc2cc(Br)c(Br)cc2Br)c(Br)c1 [2,2′,4,4′,5-pentabromodiphenyl ether, 2,2′,4,4′,5-Pentabromodiphenyl ether]
- Cardiotoxic selectivity for peak frequency (selective = ratio ≥3) [1, 5]: selective

Molecule: Brc1ccc(Oc2ccc(Br)cc2Br)c(Br)c1 [2,2′,4,4′-tetrabromodiphenyl ether, 2,2′4,4′-Tetrabromodiphenyl ether]
- Cardiotoxic selectivity for peak frequency (selective = ratio ≥3) [1, 5]: selective

Molecule: CCCCC(CC)COP(=O)(Oc1ccccc1)Oc1ccccc1 (centres unmarked) [2-ethylhexyl diphenyl phosphate, 2- Ethylhexyl diphenyl phosphate (EHDP)]
- Effect on mitochondria / mitochondria potential (in words) [3]: selectively decreased mitochondria potential

Molecule: N#CCCNCCC#N [3,3′-iminodipropionitrile, 3,3′-Iminodipropionitrile]
- Response in the Calcein AM readout [4, 6]: positive response

Molecule: c1cc2c3c(c1)ccc1cccc(c13)C2 [4-H-cyclopenta(d,e,f)phenanthrene, 4-H-Cyclopenta(d,e,f)phenanthrene]
- Effect on beat frequency (in words) [2]: positive but generally weak effect

Molecule: C1=Cc2cccc3cccc1c23 [acenaphthylene, Acenaphthylene]
- Cardiotoxic selectivity for peak frequency (selective = ratio ≥3) [1, 5]: selective
- Effect on beat frequency (in words) [2]: positive but generally weak effect

Molecule: c1ccc2cc3ccccc3cc2c1 [anthracene, Anthracene]
- Response in the Calcein AM readout [4, 6]: positive response

Molecule: c1ccc2cc3c(ccc4ccccc43)cc2c1 [benz(a)anthracene, Benz(a)anthracene]
- Effect on beat frequency (in words) [2]: positive but generally weak effect
- Response in the Calcein AM readout [4, 6]: positive response

Molecule: c1ccc2c(c1)cc1ccc3cccc4ccc2c1c34 [benzo(a)pyrene, Benzo(a)pyrene]
- Effect on beat frequency (in words) [2]: positive but generally weak effect

Molecule: c1ccc2c(c1)-c1cccc3c1c-2cc1ccccc13 [benzo(b)fluoranthene, Benzo(b)fluoranthene]
- Effect on beat frequency (in words) [2]: positive but generally weak effect
- Response in the Calcein AM readout [4, 6]: positive response

Molecule: c1ccc2c(c1)c1cccc3ccc4cccc2c4c31 [benzo(e)pyrene, Benzo(e)pyrene]
- Typical phenotypic response of calcium-flux signal trace [2]: mild increases in peak frequency
- Effect on beat frequency (in words) [2]: positive but generally weak effect
- Response in the Calcein AM readout [4, 6]: positive response

Molecule: c1ccc2cc3c(cc2c1)-c1cccc2cccc-3c12 [benzo(k)fluoranthene, Benzo(k)fluoranthene]
- Typical phenotypic response of calcium-flux signal trace [2]: mild increases in peak frequency
- Effect on beat frequency (in words) [2]: positive but generally weak effect
- Response in the Calcein AM readout [4, 6]: positive response

Molecule: COc1ccc2cc3[n+](cc2c1OC)CCc1cc2c(cc1-3)OCO2 [berberine chloride, Berberine chloride, reference compound]
- Cardiotoxic selectivity for peak frequency (selective = ratio ≥3) [1, 5]: selective
- Ca2+-flux phenotype in words [2]: decrease in the peak frequency concomitant with an increase in the average peak width

Molecule: O=C(O)CCCC[C@@H]1SC[C@@H]2NC(=O)N[C@@H]21 [biotin, Biotin, reference compound]
- Typical phenotypic response of calcium-flux signal trace [2]: unaffected regular Ca2+-flux
- Ca2+-flux phenotype in words [2]: regular beating pattern

Molecule: CCOP(=S)(OCC)Oc1nc(Cl)c(Cl)cc1Cl [chlorpyrifos, Chlorpyrifos]
- Effect on mitochondria / mitochondria potential (in words) [3]: selectively decreased mitochondria potential

Molecule: CC1(C)[C@H](C(=O)O[C@H](C#N)c2cccc(Oc3ccccc3)c2)[C@@H]1C=C(Br)Br [deltamethrin, Deltamethrin]
- Cardiotoxic selectivity for peak frequency (selective = ratio ≥3) [1, 5]: selective

Molecule: CCCCC(CC)COC(=O)c1ccccc1C(=O)OCC(CC)CCCC (centres unmarked) [di(2-ethylhexyl) phthalate, Di(2-ethylhexyl) phthalate]
- Cardiotoxic selectivity for peak frequency (selective = ratio ≥3) [1, 5]: selective

Molecule: CN1C(=O)CN=C(c2ccccc2)c2cc(Cl)ccc21 [diazepam, Diazepam, reference compound]
- Effect on peak frequency (in words) [2]: altered peak frequency

Molecule: c1ccc2c(c1)Cc1ccccc1-2 [fluorene, Fluorene]
- Cardiotoxic selectivity for peak frequency (selective = ratio ≥3) [1, 5]: selective
- Effect on beat frequency (in words) [2]: positive but generally weak effect

Molecule: Cl[C@H]1[C@H](Cl)[C@@H](Cl)[C@@H](Cl)[C@H](Cl)[C@H]1Cl [lindane, Lindane]
- Effect on mitochondria / mitochondria potential (in words) [3]: selectively decreased mitochondria potential

Molecule: CCCCCC [n-hexane, n-Hexane]
- Effect on peak frequency (in words) [2]: altered peak frequency
- Response in the Calcein AM readout [4]: positive response
- POD, Calcein AM readout ([4]; human): below 30 μM

Molecule: c1ccc2ccccc2c1 [naphthalene, Naphthalene]
- Effect on beat frequency (in words) [2]: positive but generally weak effect

Molecule: CCOP(=S)(OCC)Oc1ccc([N+](=O)[O-])cc1 [parathion, Parathion]
- Effect on mitochondria / mitochondria potential (in words) [3]: selectively decreased mitochondria potential

Molecule: CC1(C)C(C=C(Cl)Cl)C1C(=O)OCc1cccc(Oc2ccccc2)c1 (centres unmarked) [permethrin, Permethrin]
- Cardiotoxic selectivity for peak frequency (selective = ratio ≥3) [1, 5]: selective

Molecule: c1ccc2c(c1)ccc1ccccc12 [phenanthrene, Phenanthrene]
- Effect on beat frequency (in words) [2]: positive but generally weak effect

Molecule: c1cc2ccc3cccc4ccc(c1)c2c34 [pyrene, Pyrene]
- Cardiotoxic selectivity for peak frequency (selective = ratio ≥3) [1, 5]: selective
- Effect on beat frequency (in words) [2]: positive but generally weak effect

Molecule: C=C(C)[C@H]1Cc2c(ccc3c2O[C@@H]2COc4cc(OC)c(OC)cc4[C@@H]2C3=O)O1 [rotenone, Rotenone]
- POD values in most other endpoints queried, including cytotoxicity ([2]; endpoints other than JC-10 at 30 min): below 30 μM
- Ca2+-flux phenotype in words [2]: Negative inotropic effects
- Cytotoxicity (in words) [4]: highly cytotoxic

Molecule: CC(C)(C)C(O)(CCc1ccc(Cl)cc1)Cn1cncn1 (centres unmarked) [tebuconazole, Tebuconazole]
- Effect on mitochondria / mitochondria potential (in words) [3]: selectively decreased mitochondria potential

Molecule: O=P(Oc1ccccc1)(Oc1ccccc1)Oc1ccccc1 [triphenyl phosphate, Triphenyl phosphate]
- Effect on mitochondria / mitochondria potential (in words) [3]: selectively decreased mitochondria potential

Molecule: CC(C)[C@@H]1NC(=O)[C@H](C)OC(=O)[C@@H](C(C)C)NC(=O)[C@@H](C(C)C)OC(=O)[C@H](C(C)C)NC(=O)[C@H](C)OC(=O)[C@@H](C(C)C)NC(=O)[C@@H](C(C)C)OC(=O)[C@H](C(C)C)NC(=O)[C@H](C)OC(=O)[C@@H](C(C)C)NC(=O)[C@@H](C(C)C)OC1=O [valinomycin, Valinomycin, reference compound]
- Effect on mitochondria / mitochondria potential (in words) [3]: strong effect
- Cytotoxicity (in words) [4]: highly cytotoxic

Molecule: Phenol, isopropylated, phosphate (3:1)
- Cardiotoxic selectivity for peak frequency (selective = ratio ≥3) [1]: selective
- Shape of concentration response for cardiomyocyte peak frequency [2]: non-monotonic concentration responses
